Data taken from patent US11505523B2, “HDAC8 inhibitors for treating cancer” (City of Hope, priority 2013, dated 2022).

The compounds below were run against HDAC8 (Homo sapiens (Human), UniProt Q9BY41) (assay: Inhibition of HDAC8). Conditions: inhibition of HDAC8, relative potency (Tables 1-3).
Format: biochemical

Sequence of HDAC8 (Q9BY41 whole entry): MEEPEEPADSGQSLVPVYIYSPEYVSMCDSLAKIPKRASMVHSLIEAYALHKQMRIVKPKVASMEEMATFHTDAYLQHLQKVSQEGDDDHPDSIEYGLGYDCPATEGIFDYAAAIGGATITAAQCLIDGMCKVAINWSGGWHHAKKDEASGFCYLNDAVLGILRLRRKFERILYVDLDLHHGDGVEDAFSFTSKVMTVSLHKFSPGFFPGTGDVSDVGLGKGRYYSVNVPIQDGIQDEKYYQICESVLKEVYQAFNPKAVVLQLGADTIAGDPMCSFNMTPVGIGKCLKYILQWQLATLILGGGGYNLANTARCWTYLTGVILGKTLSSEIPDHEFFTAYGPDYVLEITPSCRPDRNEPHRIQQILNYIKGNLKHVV

Row | SMILES | IC50 PCI34051/IC50 compound
1 | COc1ccc(/C=C/C(=O)NO)c(-c2cc(OC)c(OC)c(OC)c2)c1 [Compound 5a] | 0.29
2 | COc1ccc(/C=C/C(=O)NO)c(-c2cccc(Cl)c2)c1 [Compound 5c] | 1.17
3 | COc1ccc(/C=C/C(=O)NO)c(-c2ccc(F)cc2)c1 [Compound 5d] | 1.90
4 | COc1ccc(/C=C/C(=O)NO)c(-c2cccc3[nH]ccc23)c1 [Compound 5f] | 0.64
5 | COc1ccc(/C=C/C(=O)NO)c(-c2cncc3ccccc23)c1 [Compound 5g] | 0.28
6 | COc1ccc(/C=C/C(=O)NO)c(Nc2ccccc2)c1 [Compound 6a] | 0.40
7 | COc1ccc(/C=C/C(=O)NO)c(Nc2ccccc2OC)c1 [Compound 6b] | 0.17
8 | COc1cccc(Nc2cc(OC)ccc2/C=C/C(=O)NO)c1 [Compound 6c] | 0.44
9 | COc1ccc(Nc2cc(OC)ccc2/C=C/C(=O)NO)cc1 [Compound 6d] | 0.30
10 | COc1ccc(/C=C/C(=O)NO)c(Nc2ccc(OC)c(OC)c2)c1 [Compound 6e] | 0.44
11 | COc1ccc(/C=C/C(=O)NO)c(Nc2cc(OC)c(OC)c(OC)c2)c1 [Compound 6f] | 0.24
12 | COc1cc(Nc2cc(F)ccc2/C=C/C(=O)NO)cc(OC)c1OC [Compound 15a] | 0.38
13 | COc1cc(Nc2cc(C(F)(F)F)ccc2/C=C/C(=O)NO)cc(OC)c1OC [Compound 15b] | 0.55
14 | COc1cc(Nc2c(/C=C/C(=O)NO)ccc(OC)c2OC)cc(OC)c1OC [Compound 15d] | 0.44

Same assay, conditions: inhibition of HDAC8; footnote: (Tables 11-13)

Row | SMILES | A (relative potency to PCI34051)
15 | COc1ccc(/C=C/C(=O)NO)c(-c2cc(OC)c(OC)c(OC)c2)c1 [Compound 5a] | 0.29
16 | COc1ccc(/C=C/C(=O)NO)c(-c2cccc(Cl)c2)c1 [Compound 5c] | 1.17
17 | COc1ccc(/C=C/C(=O)NO)c(-c2ccc(F)cc2)c1 [Compound 5d] | 1.90
18 | COc1ccc(/C=C/C(=O)NO)c(-c2cccc3[nH]ccc23)c1 [Compound 5f] | 0.64
19 | COc1ccc(/C=C/C(=O)NO)c(-c2cncc3ccccc23)c1 [Compound 5g] | 0.28
20 | COc1ccc(/C=C/C(=O)NO)c(Nc2ccccc2)c1 [Compound 6a] | 0.40
21 | COc1ccc(/C=C/C(=O)NO)c(Nc2ccccc2OC)c1 [Compound 6b] | 0.17
22 | COc1cccc(Nc2cc(OC)ccc2/C=C/C(=O)NO)c1 [Compound 6c] | 0.44
23 | COc1ccc(Nc2cc(OC)ccc2/C=C/C(=O)NO)cc1 [Compound 6d] | 0.30
24 | COc1ccc(/C=C/C(=O)NO)c(Nc2ccc(OC)c(OC)c2)c1 [Compound 6e] | 0.44
25 | COc1ccc(/C=C/C(=O)NO)c(Nc2cc(OC)c(OC)c(OC)c2)c1 [Compound 6f] | 0.24
26 | COc1cc(Nc2cc(F)ccc2/C=C/C(=O)NO)cc(OC)c1OC [Compound 15a] | 0.38
27 | COc1cc(Nc2cc(C(F)(F)F)ccc2/C=C/C(=O)NO)cc(OC)c1OC [Compound 15b] | 0.55
28 | COc1cc(Nc2c(/C=C/C(=O)NO)ccc(OC)c2OC)cc(OC)c1OC [Compound 15d] | 0.44

Same assay, conditions: mean SD of three determinations

Row | SMILES | IC50 [µM]
29 | COc1ccc(/C=C/C(=O)NO)c(OCc2ccccc2)c1 [Compound 13a, (E)-N-Hydroxy-2-benzyloxy-4-methoxycinnamide] | 0.207 ± 0.0134
30 | COc1ccc(COc2cc(OC)ccc2/C=C/C(=O)NO)cc1 [Compound 13d, (E)-N-Hydroxy-2-(4-methoxybenzyloxy)-4-methoxycinnamide] | 0.397 ± 0.0127
31 | COc1ccc(OCCOc2cc(OC)ccc2/C=C/C(=O)NO)cc1 [Compound 18a, (E)-N-Hydroxy-2-(2-(4-methoxyphenoxyoxy)ethoxy)-4-methoxycinnamide] | 0.122 ± 0.0035

The compounds below were run on HeLa nuclear HDACs (assay: Inhibition of HeLa nuclear HDACs (HeLa nuclear extract, mainly HDACs1-3)). Conditions: read-out: HeLa HDAC IC50.
Format: biochemical

Row | SMILES | IC50 [µM]
32 | COc1ccc(/C=C/C(=O)NO)c(-c2cc(OC)c(OC)c(OC)c2)c1 [Compound 5a] | > 10
33 | COc1ccc(/C=C/C(=O)NO)c(-c2cccc(Cl)c2)c1 [Compound 5c] | > 10
34 | COc1ccc(/C=C/C(=O)NO)c(-c2ccc(F)cc2)c1 [Compound 5d] | > 10
35 | COc1ccc(/C=C/C(=O)NO)c(-c2cccc3[nH]ccc23)c1 [Compound 5f] | > 10
36 | COc1ccc(/C=C/C(=O)NO)c(-c2cncc3ccccc23)c1 [Compound 5g] | 0.7984 ± 0.0003
37 | COc1ccc(/C=C/C(=O)NO)c(Nc2ccccc2)c1 [Compound 6a] | > 10
38 | COc1ccc(/C=C/C(=O)NO)c(Nc2ccccc2OC)c1 [Compound 6b] | > 10
39 | COc1cccc(Nc2cc(OC)ccc2/C=C/C(=O)NO)c1 [Compound 6c] | > 10
40 | COc1ccc(Nc2cc(OC)ccc2/C=C/C(=O)NO)cc1 [Compound 6d] | > 10
41 | COc1ccc(/C=C/C(=O)NO)c(Nc2ccc(OC)c(OC)c2)c1 [Compound 6e] | > 10
42 | COc1ccc(/C=C/C(=O)NO)c(Nc2cc(OC)c(OC)c(OC)c2)c1 [Compound 6f] | > 10
43 | COc1ccc(/C=C/C(=O)NO)c(OCc2ccccc2)c1 [Compound 13a, (E)-N-Hydroxy-2-benzyloxy-4-methoxycinnamide] | > 10
44 | COc1ccc(/C=C/C(=O)NO)c(OCc2ccc(Br)cc2)c1 [Compound 13c, (E)-N-Hydroxy-2-(4-bromobenzyloxy)-4-methoxycinnamide] | > 10
45 | COc1ccc(COc2cc(OC)ccc2/C=C/C(=O)NO)cc1 [Compound 13d, (E)-N-Hydroxy-2-(4-methoxybenzyloxy)-4-methoxycinnamide] | > 10
46 | COc1cc(Nc2cc(F)ccc2/C=C/C(=O)NO)cc(OC)c1OC [Compound 15a] | > 10
47 | COc1cc(Nc2cc(C(F)(F)F)ccc2/C=C/C(=O)NO)cc(OC)c1OC [Compound 15b] | > 10
48 | COc1cc(Nc2c(/C=C/C(=O)NO)ccc(OC)c2OC)cc(OC)c1OC [Compound 15d] | > 10
49 | COc1ccc(OCCOc2cc(OC)ccc2/C=C/C(=O)NO)cc1 [Compound 18a, (E)-N-Hydroxy-2-(2-(4-methoxyphenoxyoxy)ethoxy)-4-methoxycinnamide] | > 10
